Results published in patent US20250134874A1, “PHARMACEUTICAL FORMULATIONS COMPRISING 3-({[(4R)-7-{METHYL[4-(PROPAN-2-YL)PHENYL]AMINO}-3,4-DIHYDRO-2H-1-BENZOPYRAN-4-YL]METHYL}AMINO)PYRIDINE-4-CARBOXYLIC ACID” (TACHYON THERAPEUTICS, INC., priority 2021, published 2025).
Like-named read-outs stand apart in the source and are kept apart here.

Assay: Sink condition: solubility of API in DI water and SGF
Format: physicochemical
Settings: for solubility: thermodynamic from solid, read-out: Final Concentration
Experimental: • 1. 5 mg of API was placed into a glass vial. • 2. Added 0.2 mL of diluent (DI water and SGF) into the vial, then sonicate and vortex to dissolve the API. • 3. If the solution is not clear after 5 minutes, add additional 0.2 mL of diluent into the vial, then sonicate and vortex to dissolve the API. • 4. Repeat step 4 till all API is dissolved. • 5. Calculate the final concentration of API and the maximum dissolvable dose used in dissolution test.

In the case of `CC(C)c1ccc(N(C)c2ccc3c(c2)OCC[C@H]3CNc2cnccc2C(=O)O)cc1` [Compound 1, 3-({[(4R)-7-{methyl[4-(propan-2-yl)phenyl]amino}-3,4-dihydro-2H-1-benzopyran-4-yl]methyl}amino)pyridine-4-carboxylic acid], the “Maximum dissolvable dose used in dissolution test” value (diluent DI water) is reported as 717 mg, the “Maximum dissolvable dose used in dissolution test” value (diluent SGF) is reported as 617 mg and the solubility (simulated gastric fluid, diluent SGF) is reported as no less than 3700 µg/mL. It also gave a solubility (diluent DI water) of no less than 4300 µg/mL.
